The term IC50 denotes the midpoint of a concentration-inhibition curve.

Here are results for nine molecules from BindingDB's records for patent US20250304549 (Sichuan Huiyu Pharmaceutical, 2025).

The target in one assay is Histone deacetylase 1/8 (Homo sapiens, UniProt Q13547+Q9BY41). Kind of assay: In Vitro Enzyme Inhibition Assay - HDAC. Here is the method:
(§1) The effect of the compound on the enzymatic activity of pan-HDAC and two isoforms (HDAC1 and HDAC8) was examined using the HDAC-Glo I/II Assay and Screening System assay to assess the level of inhibition of HDAC protease activity and selectivity in each isoform. The proteins and detection reagents were from the HDAC-Glo™ I/II Assay and Screening System (Promega). A 1 mM stock solution of the compound was prepared in DMSO and diluted in a 5-fold gradient to create a series of 8 concentrations, and a specific volume of the highest concentration was diluted 25 times with HDAC Buffer to obtain 4× working solution of the compound. […] The 384-well plate was then read on a multifunctional microplate reader, with the Luminescence channel selected to record Luminescence values (RLU).

Assay [1] deals with Lysine-specific histone demethylase 1A (Homo sapiens, UniProt O60341). The assay can be described thus: In Vitro Enzyme Inhibition Assay - LSD1. The procedure:
Initially, a master solution of 90 μM test compound (dissolved in DMSO) was prepared and sequentially diluted with DMSO in a 5-fold concentration gradient to yield a total of 9 concentrations of the compound working solution 1 (90×). Subsequently these 9 concentrations of working solution 1 were sequentially diluted by a 30-fold concentration gradient, i.e., 2 μL of working solution 1 was aspirated and added to 58 μL of Buffer, mixed on a vortex mixer with sufficient shaking to yield 9 concentrations of the screening test compound working solution 2 (3×). […] The mixture was incubated at room temperature for 15 minutes. […] Afterward, 2 μL of a termination solution (containing 5.4 mM 2-PCPA) was added to each well, mixed evenly, and incubated for another 15 minutes. Finally 4 μL of a pre-mixed antibody solution of Eu-anti H3K4 (PerkinElmer, TRF0404-D) and allophycocyanin (Prozyme, PJ27S) (1:1) was added to each well, mixed evenly, and incubated for 60 minutes.

A further assay addresses Histone deacetylase 1 (Homo sapiens, UniProt Q13547). The assay can be described thus: In Vitro Enzyme Inhibition Assay - HDAC. The procedure:
as §1

For the next assay, the target named is T1, Histone deacetylase 8 (Homo sapiens, UniProt Q9BY41).
T1 sequence (Q9BY41 whole entry): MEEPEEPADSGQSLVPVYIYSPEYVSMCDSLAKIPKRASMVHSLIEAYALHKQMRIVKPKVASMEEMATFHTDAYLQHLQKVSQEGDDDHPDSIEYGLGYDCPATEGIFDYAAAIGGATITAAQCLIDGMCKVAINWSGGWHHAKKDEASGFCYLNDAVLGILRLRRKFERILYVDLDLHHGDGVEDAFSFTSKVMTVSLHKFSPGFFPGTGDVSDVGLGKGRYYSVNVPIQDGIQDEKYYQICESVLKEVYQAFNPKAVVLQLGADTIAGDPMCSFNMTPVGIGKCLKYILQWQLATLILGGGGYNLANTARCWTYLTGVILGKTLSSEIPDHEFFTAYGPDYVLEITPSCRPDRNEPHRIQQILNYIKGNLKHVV
The assay can be described thus: In Vitro Enzyme Inhibition Assay - HDAC. The procedure:
as §1

Histone deacetylase 1/8, sequence (Q13547 whole entry, one chain of several, canonical isoform): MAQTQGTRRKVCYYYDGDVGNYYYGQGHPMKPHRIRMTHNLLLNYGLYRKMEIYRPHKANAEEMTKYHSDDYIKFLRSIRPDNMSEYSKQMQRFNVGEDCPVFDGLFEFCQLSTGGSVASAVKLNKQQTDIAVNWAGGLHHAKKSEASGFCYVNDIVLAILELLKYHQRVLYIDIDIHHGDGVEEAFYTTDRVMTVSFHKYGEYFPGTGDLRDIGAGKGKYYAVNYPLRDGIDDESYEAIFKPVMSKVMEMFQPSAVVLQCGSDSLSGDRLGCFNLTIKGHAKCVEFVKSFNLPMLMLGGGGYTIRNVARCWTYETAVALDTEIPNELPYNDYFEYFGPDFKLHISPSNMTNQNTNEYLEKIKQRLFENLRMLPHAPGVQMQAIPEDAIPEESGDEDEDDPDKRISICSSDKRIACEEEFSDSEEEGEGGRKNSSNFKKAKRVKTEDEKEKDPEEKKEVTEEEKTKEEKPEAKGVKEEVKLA
Histone deacetylase 1, sequence (Q13547 whole entry): as the sequence (Q13547 whole entry, one chain of several, canonical isoform) above

Consider `O=C(/C=C/c1ccc(CNC(=O)c2cc(CN[C@@H]3C[C@H]3c3ccc(F)cc3)nc(-c3ccc(-n4cccn4)cc3)n2)cc1)NO` [US20250304549, Example 232], for which it took 114 nM to reach half-maximal inhibition on Histone deacetylase 1/8 (IC50).
In the case of `CNC1CCN(C2N=CC(c3ccc(OCCCCCCC(=O)NO)c(O)c3)=C(c3ccc(C#N)c(F)c3)C2C#N)CC1` (stereo not given) [US20250304549, Example 24], the IC50 in assay [1] was 0.41 nM; at Histone deacetylase 1, 8.28 nM; against Histone deacetylase 8, 118 nM.
For the molecule `Cc1ccc(-c2cnc(N3CCC(NCc4cnc(/C=C/C(=O)NO)nc4)CC3)c(C#N)c2-c2ccc(C#N)c(F)c2)cc1O` [US20250304549, Example 148], the concentration for half-maximal inhibition (IC50) in assay [1] came to 1.05 nM; on Histone deacetylase 1, 0.43 nM; against Histone deacetylase 1/8, 2.47 nM; against Histone deacetylase 8, 58.4 nM.
As for `COc1ccc(-c2cnc(N3CCC(NCc4ccc(/C=C/C(=O)NO)cc4)CC3)c(F)c2-c2ccc(C#N)c(F)c2)cc1O` [US20250304549, Example 76], the IC50 against Histone deacetylase 1/8 came to 1.59 nM; on Histone deacetylase 8, 157 nM.
As to `COc1ccc(-c2cnc(N3CCCC(NCc4ccc(/C=C/C(=O)NO)cc4)CC3)c(C#N)c2-c2ccc(C#N)c(F)c2)cc1O` (stereo not given) [US20250304549, Example 149], the IC50 in assay [1] is 0.54 nM; at Histone deacetylase 1 it was 0.5 nM; on Histone deacetylase 1/8, 1.05 nM; against Histone deacetylase 8, 58.9 nM.
Take `COC1=C(OCCCCCCC(=O)NO)CC(C2=C(c3ccc(C#N)c(F)c3)N=C(N3CCC(N)CC3)N3C=CNC23)C=C1` (stereo not given) [US20250304549, Example 20]: the 50% inhibitory concentration (IC50) came to 16.9 nM in assay [1], 311 nM against Histone deacetylase 1 and 446 nM on Histone deacetylase 8.
Consider `COc1ccc(C2=C(C3C=NC(C#N)=CC3)C(C#N)C(N3CCC(NCc4ccc(/C=C/C(=O)NO)cc4)CC3)C=C2)cc1O` (stereo not given) [US20250304549, Example 267], for which half-maximal inhibition in assay [1] (IC50) required 7.36 nM.
Turning to `N#Cc1ccc(-c2c(-c3ccc(/C=C/C(=O)NO)c(O)c3)cnc(N3CCC(NCc4ccc(/C=C/C(=O)NO)cc4)CC3)c2C#N)cc1F` [US20250304549, Example 90], the IC50 worked out at 8.01 nM in assay [1], 10.6 nM at Histone deacetylase 1, 19.5 nM at Histone deacetylase 1/8 and 63.5 nM on Histone deacetylase 8.
For `COc1ccc(-c2cnc(N3CCC(NCc4ccc(/C=C/CC(=O)NO)cc4)CC3)c(C#N)c2-c2ccc(C#N)c(F)c2)cc1O` [US20250304549, Example 169], the IC50 in assay [1] came out at 0.42 nM; at Histone deacetylase 1/8, 51.7 nM; on Histone deacetylase 8, 1400 nM.
